Measurements from US6432983B1, “Benzothiophene compounds intermediates processes and methods of use” (Eli Lilly and Company, priority 1996, dated 2002).
Marks after values point to notes of the source that are not given here.

Tested on: ovariectomized rats
Test: ovariectomized rat model of postmenopausal hyperlipidemia (uterine weight, uterine eosinophil peroxidase, serum cholesterol)
Format: in vivo
Design: Uterine Eosinophil (Vmax): unit not given here
Settings: for Serum Cholest. % Dec: decrease versus ovariectomized controls
Description: Experimental models of postmenopausal hyperlipidemia are known in the art. Germane to this invention is the ovariectomized rat model which is detailed in U.S. Pat. No. 5,464,845.
Data presented in Table 1 show comparative results among ovariectomized rats, rats treated with 17-α-ethynyl estradiol(EE2), and rats treated with certain compounds of this invention. […] This uterine response to estrogen is well recognized in the art.
Not only did the compounds of the present invention reduce serum cholesterol compared to the ovariectomized animals, but the uterine weight was increased to lesser extent than those given EE2. Compared to estrogenic compounds known in the art, the benefit of serum cholesterol reduction while lessening the effect on uterine weight is unusual and desirable.
As expressed in the data below, estrogenicity also was assessed by evaluating the response of eosinophil infiltration into the uterus.
The data presented in Table 1 reflect the response per treatment group.

[1] = ovariectomized rats, dose 1.0 mg/kg
[2] = ovariectomized rats, dose 10.0 mg/kg

| Uterine Eosinophil (Vmax) (rat, in vivo, 1 mg/kg) | Uterine Weight % Inc (rat, in vivo, 1 mg/kg) | Uterine Eosinophil (Vmax) (rat, in vivo, 10 mg/kg) | Uterine Weight % Inc (rat, in vivo, 10 mg/kg) | Uterine Weight % Inc (ovariectomized rats, dose 0.1 mg/kg, % increase versus the ovariectomized controls) | Uterine Eosinophil (Vmax) (ovariectomized rats, dose 0.1 mg/kg, Eosinophil peroxidase, Vmaximum) | SMILES | Serum Cholest. % Dec [1] | Serum Cholest. % Dec [2] | uterine weight (in words) (compared to the ovariectomized animals or to EE2) | serum cholesterol (in words) (compared to the ovariectomized animals, EE2 orally at 0.1 mg/kg/day) | Serum Cholest. % Dec (ovariectomized rats, dose 0.1 mg/kg) | eosinophil infiltration into the uterus (in words) (stromal layer of the ovariectomized rat uteri) |
| --- | --- | --- | --- | --- | --- | --- | --- | --- | --- | --- | --- | --- |
| 51.6* | 52.6* % | 137.3* | 58.2* % | – | – | O=C(c1ccc(OCCCN2CCCC2)cc1)c1c(-c2ccc(O)cc2)sc2cc(O)ccc12 [Example 15, [2-(4-Hydroxyphenyl)-6-hydroxybenzo[b]thien-3-yl][4-[3-(1-pyrrolidinyl)propyloxyl]phenyl]methanone] | 62.7* % | 64.0* % | – | – | – | – |
| 24.3* | 21.4* % | 66.5* | 62.0* % | – | – | O=C(c1ccc(OCCCCN2CCCC2)cc1)c1c(-c2ccc(O)cc2)sc2cc(O)ccc12 [Example 14, [2-(4-Hydroxyphenyl)-6-hydroxybenzo[b]thien-3-yl][4-[4-(1-pyrrolidinyl)butyloxyl]phenyl]methanone] | 37.9* % | 65.7* % | – | – | – | – |
| 5.8 | 10.1% | 37.8* | 39.2* % | – | – | O=C(c1ccc(OCCCCCN2CCCC2)cc1)c1c(-c2ccc(O)cc2)sc2cc(O)ccc12 [Example 13, [2-(4-Hydroxyphenyl)-6-hydroxybenzo[b]thien-3-yl][4-[5-(1-pyrrolidinyl)pentyloxyl]phenyl]methanone] | 36.4* % | 52.9* % | – | – | – | – |
| 5.9 | 9.3% | 59.2* | 64.0* % | – | – | O=C(c1ccc(OCCCCCCCN2CCCC2)cc1)c1c(-c2ccc(O)cc2)sc2cc(O)ccc12 [Example 11, [2-(4-Hydroxyphenyl)-6-hydroxybenzo[b]thien-3-yl][4-[7-(1-pyrrolidinyl)heptyloxyl]phenyl]methanone] | 32.4* % | 60.5* % | – | – | – | – |
| 2.6 | −2.6% | 17.2* | 47.8* % | – | – | O=C(c1ccc(OCCCCCCN2CCCC2)cc1)c1c(-c2ccc(O)cc2)sc2cc(O)ccc12 [Example 12, [2-(4-Hydroxyphenyl)-6-hydroxybenzo[b]thien-3-yl][4-[6-(1-pyrrolidinyl)hexyloxyl]phenyl]methanone] | 34.2* % | 74.0* % | – | – | – | – |
| 4.2 | 18.3* % | 40.3* | 69.3* % | – | – | O=C(c1ccc(OCCCCCCCCN2CCCC2)cc1)c1c(-c2ccc(O)cc2)sc2cc(O)ccc12 [Preparation C, [2-(4-Hydroxyphenyl)-6-hydroxybenzo[b]thien-3-yl][4-[8-(1-pyrrolidinyl)octyloxyl]phenyl]methanone] | 31.3* % | 72.8* % | – | – | – | – |
| – | – | – | – | 125.8* % | 111.2* | C#C[C@]1(O)CC[C@H]2[C@@H]3CCc4cc(O)ccc4[C@H]3CC[C@@]21C [EE2, 17-α-ethynyl estradiol, reference compound] | – | – | substantially greater than the uterine weight of the ovariectomized animals | caused a decrease in serum cholesterol | 88.1* % | substantial and expected increase in eosinophil infiltration |
